Values after ≈ are worked out from the molar mass of the structure shown. Where two headings read alike, the source gives them in different places.
Columns and labels:
[1] = system: Mycobacterium avium 330/88; experiment: MIC, micro method in Šula's semisynthetic medium, M. avium; assay type: cell-based; conditions: read-out: MIC M. avium 330/88
HepG2 cells = experiment: Cytotoxicity on HepG2 cell line (CellTiter 96); assay type: cell-based, human; conditions: Homo sapiens, read-out: IC50 HepG2
[2] = system: Mycobacterium kansasii 6509/96; experiment: MIC, micro method in Šula's semisynthetic medium, M. kansasii clinical isolate; assay type: cell-based; conditions: read-out: MIC M. kansasii 6509/96
Mtb 331/88 (i.e., H37Rv) = experiment: MIC, micro method in Šula's semisynthetic medium, drug-susceptible Mtb; assay type: cell-based, Mycobacterium tuberculosis; conditions: Mycobacterium tuberculosis, H37RV
Mtb H37Rv = experiment: Metabolic labeling with 14C acetate and TLC lipid analysis; conditions: 10× and 100× MIC, 14C acetate, 24 h
Mtb H37Ra pVV2-dprE2 = experiment: microbe, parasite or virus in culture; assay type: cell-based; conditions: Mycobacterium tuberculosis, 672 h, 28 days
[3] = system: Mtb H37Ra pVV2-dprE1/dprE2; experiment: microbe, parasite or virus in culture; assay type: cell-based; conditions: Mycobacterium tuberculosis, 672 h, 28 days
Mtb H37Ra pVV2 = experiment: microbe, parasite or virus in culture; assay type: cell-based; conditions: Mycobacterium tuberculosis, 672 h, 28 days
Bacillus subtilis = system: Bacillus subtilis; set-up: method as in PMID 30988267; conditions: cited from earlier work
Staphylococcus aureus = system: Staphylococcus aureus; set-up: method as in PMID 30988267; conditions: cited from earlier work

SMILES	MIC ([1]; 330/88, 336 h)	MIC ([1]; 330/88, 504 h)	IC50 (HepG2 cells; HepG2, 24 h)	MIC ([2]; 6509/96, 168 h)	MIC ([2]; 6509/96, 336 h)	MIC ([2]; 6509/96, 504 h)	MIC (Mtb 331/88 (i.e., H37Rv); 336 h, 14 days)	MIC (Mtb 331/88 (i.e., H37Rv); 504 h, 21 days)	further results
CCCCCCCCCCCCNc1nnc(-c2cc([N+](=O)[O-])cc([N+](=O)[O-])c2)o1 [Compound 5l, 5-(3,5-Dinitrophenyl)-N-dodecyl-1,3,4-oxadiazol-2-amine]	4 µM (≈ 1.68 µg/mL)	8 µM (≈ 3.36 µg/mL)	> 50 µM	1 µM (≈ 0.419 µg/mL)	1 µM (≈ 0.419 µg/mL)	1 µM (≈ 0.419 µg/mL)	1 µM (≈ 0.419 µg/mL)	1 µM (≈ 0.419 µg/mL)	–
CCCCCCCCCCCCCNc1nnc(-c2cc([N+](=O)[O-])cc([N+](=O)[O-])c2)o1 [Compound 5m, 5-(3,5-Dinitrophenyl)-N-tridecyl-1,3,4-oxadiazol-2-amine]	8 µM (≈ 3.47 µg/mL)	16 µM (≈ 6.94 µg/mL)	> 50 µM	≤ 0.03 µM	0.06 µM (≈ 0.026 µg/mL)	0.125 µM (≈ 0.0542 µg/mL)	0.125 µM (≈ 0.0542 µg/mL)	0.5 µM (≈ 0.217 µg/mL)	–
CCCCCCCCCCCCCCNc1nnc(-c2cc([N+](=O)[O-])cc([N+](=O)[O-])c2)o1 [Compound 5n, 5-(3,5-Dinitrophenyl)-N-tetradecyl-1,3,4-oxadiazol-2-amine]	8 µM (≈ 3.58 µg/mL)	16 µM (≈ 7.16 µg/mL)	> 50 µM	0.25 µM (≈ 0.112 µg/mL)	0.5 µM (≈ 0.224 µg/mL)	1 µM (≈ 0.448 µg/mL)	1 µM (≈ 0.448 µg/mL)	1 µM (≈ 0.448 µg/mL)	–
CCCCCCCCCCCCCCCNc1nnc(-c2cc([N+](=O)[O-])cc([N+](=O)[O-])c2)o1 [Compound 5o, 5-(3,5-Dinitrophenyl)-N-pentadecyl-1,3,4-oxadiazol-2-amine]	8 µM (≈ 3.69 µg/mL)	16 µM (≈ 7.39 µg/mL)	> 50 µM	0.5 µM (≈ 0.231 µg/mL)	1 µM (≈ 0.462 µg/mL)	2 µM (≈ 0.923 µg/mL)	2 µM (≈ 0.923 µg/mL)	2 µM (≈ 0.923 µg/mL)	–
CCCCCCCCCCCCNc1nnc(-c2cc([N+](=O)[O-])cc([N+](=O)[O-])c2)s1 [Compound 5s, 5-(3,5-Dinitrophenyl)-N-dodecyl-1,3,4-thiadiazol-2-amine]	64 µM (≈ 27.9 µg/mL)	125 µM (≈ 54.4 µg/mL)	–	1 µM (≈ 0.436 µg/mL)	1 µM (≈ 0.436 µg/mL)	1 µM (≈ 0.436 µg/mL)	1 µM (≈ 0.436 µg/mL)	1 µM (≈ 0.436 µg/mL)	lipid profile of treated cells vs untreated cells (Mtb H37Rv): accumulation of TMM and TDM; MIC (Mtb H37Ra pVV2-dprE2): < 0.1 µM; MIC [3]: 0.5 µM (≈ 0.218 µg/mL); MIC (Mtb H37Ra pVV2): < 0.1 µM
NNC(=O)c1ccncc1 [INH, isoniazid, reference compound]	–	–	–	–	–	–	0.5 µM (≈ 0.0686 µg/mL)	0.5 µM (≈ 0.0686 µg/mL)	MIC ([1]; 330/88, 336 h, 14 days, * = growth still observed at this concentration, turbidity or precipitate above): > 250 µM; MIC ([1]; 330/88, 504 h, 21 days, * = growth still observed at this concentration, turbidity or precipitate above): > 250 µM; IC50 (HepG2 cells; HepG2, 24 h incubation): > 1000 µM; MIC ([2]; 6509/96, 168 h, 7 days): 4 µM (≈ 0.549 µg/mL); MIC ([2]; 6509/96, 336 h, 14 days): 8 µM (≈ 1.1 µg/mL); MIC ([2]; 6509/96, 504 h, 21 days): 8 µM (≈ 1.1 µg/mL)
Cc1ccc(-c2nnc(NC(=O)c3ccc([N+](=O)[O-])cc3)o2)cc1 [IX]	–	–	–	–	–	–	–	–	MIC (Bacillus subtilis): 780 µg/mL (≈ 2410 µM)
Cc1ccc(C(=O)Nc2nnc(-c3ccc(C)cc3)o2)cc1 [VIII]	–	–	–	–	–	–	–	–	MIC (Staphylococcus aureus): 1560 µg/mL (≈ 5320 µM)
O=C(Nc1nnc(COc2ccccc2)o1)c1ccc([N+](=O)[O-])cc1 [X]	–	–	–	–	–	–	–	–	MIC (Bacillus subtilis): 780 µg/mL (≈ 2290 µM)

From PMC12121777 (PLOS One, 2025)
